Results as given in ChEMBL document CHEMBL1137498, “Design, synthesis and biological evaluation of novel lipoamino acid-based glycolipids for oral drug delivery” (Bioorg Med Chem, 2007).
Converted amounts (≈) assume the structure as drawn.

Experiments:
[1] = Apparent permeability across Caco-2 cells; assay type: ADME, cell-based; settings: human
Escherichia coli = experiment: Antibacterial activity against Escherichia coli; assay type: functional
Klebsiella aerogenes = experiment: Antibacterial activity against Klebsiella aerogenes; assay type: functional
Staphylococcus aureus = experiment: Antibacterial activity against Staphylococcus aureus; assay type: functional
Pseudomonas aeruginosa = experiment: Antibacterial activity against Pseudomonas aeruginosa; assay type: functional
Bacillus subtilis = experiment: Antibacterial activity against Bacillus subtilis; assay type: functional

CCN1CCN(C(=O)N[C@@H](C(=O)N[C@@H]2C(=O)N3[C@@H]2SC(C)(C)[C@@H]3C(=O)O)c2ccccc2)C(=O)C1=O [PIPERACILLIN]
Papp [1]: 0.0325 ×10⁻⁶ cm/s
MIC (Escherichia coli): 4 µg/mL (≈ 7.73 µM)
MIC (Klebsiella aerogenes): 8 µg/mL (≈ 15.5 µM)
MIC (Staphylococcus aureus): 1 µg/mL (≈ 1.93 µM)
MIC (Pseudomonas aeruginosa): 4 µg/mL (≈ 7.73 µM)
MIC (Bacillus subtilis): 0.5 µg/mL (≈ 0.966 µM)
